Measured values from US20090131354A1, “miR-126 REGULATED GENES AND PATHWAYS AS TARGETS FOR THERAPEUTIC INTERVENTION” (priority 2007, published 2009).

Experiments:
Format in all cases: cell-based, human
[1] = test system: lung cancer cells A549, H1299, H522, H838, Calu-3, HCC827, HCC2935, H520, H1650, H460, H226; assay: Alamar Blue proliferation assay, all lung cancer cell lines tested; details: 30 nM
Description: (§1) The inventors assessed the therapeutic effect of hsa-miR-126 for lung cancer by using 11 individual lung cancer cell lines. To measure cellular proliferation of lung cancer cells, the following non-small cell lung cancer (NSCLC) cells were used: cells derived from lung adenocarcinoma (A549, H1299, H522, H838, Calu-3, HCC827, HCC2935), cells derived from lung squamous cell carcinoma (H520, H226), cells derived from lung bronchioalveolar carcinoma (H1650), and cells derived from lung large cell carcinoma (H460). Synthetic hsa-miR-126 (Pre-miR™-hsa-miR-126, Ambion cat. no. AM17100) or negative control (NC) miRNA (Pre-miR™ microRNA Precursor Molecule-Negative Control #2; Ambion cat. no. AM17111) was delivered via lipid-based transfection into A549, H1299, H522, H838, Calu-3, HCC827, HCC2935, H520, H1650, and H460 cells, and via electroporation into H226 cells.
(§2) Lipid-based reverse transfections were carried out in triplicate according to a published protocol (Ovcharenko et al., 2005) and the following parameters: Cells (5,000-12,000 per 96 well), 0.1-0.2 μl Lipofectamine™ 2000 (cat. no. 11668-019, Invitrogen Corp., Carlsbad, Calif., USA) in 20 μl OptiMEM (Invitrogen), 30 nM final concentration of miRNA in 100 μl. […]

[2] = test system: RWPE2 prostate cancer cells; assay: Alamar Blue proliferation assay, RWPE2; details: 30 nM, normalized to negative control miRNA (100% proliferation)
Description: The inventors assessed the therapeutic effect of hsa-miR-126 for prostate cancer by using 4 individual human prostate cancer cell lines. To measure cellular proliferation of prostate cancer cells, the following prostate cancer cell lines were used: PPC-1, derived from a bone metastasis; Du145, derived from a brain metastasis; RWPE2, derived from prostate cells immortalized by human papillomavirus 18 and transformed by the K-RAS oncogene; and LNCaP, derived from a lymph node metastasis (Stone et al., 1978; Horoszewicz et al., 1980; Brothman et al., 1991; Pretlow et al., 1993; Bello et al., 1997). PPC-1 and Du145 cells lack expression of the prostate-specific antigen (PSA) and are independent of androgen receptor (AR) signaling. In contrast, RWPE2 and LNCaP cells test positive for PSA and AR. Cells were transfected with synthetic hsa-miR-126 (Pre-miR™-hsa-miR-126, Ambion cat. no. AM 17100) or negative control miRNA (NC; Pre-miR™ microRNA Precursor Molecule-Negative Control #2; Ambion cat. no. AM17111) in a 96-well format using a lipid-based transfection reagent. […] Proliferation was assessed 4-7 days post-transfection using Alamar Blue™ (Invitrogen) following the manufacturer's instructions. […] Fluorescent light units (FLU) were measured after 3 hours, normalized to the control, and plotted as percent change in proliferation. […]

[3] = test system: HCC2935 lung cancer cells; assay: Alamar Blue proliferation assay, HCC2935; details: HCC2935, 30 nM, 72 h, relative to NC miRNA (100%)
Description: as §1, §2

With “hsa-miR-126 (UCGUACCGUGAGUAAUAAUGC; synthetic pre-miR form, further chemistry not given here) [Synthetic hsa-miR-126 (Pre-miR™-hsa-miR-126, Ambion cat. no. AM17100)]” the “average inhibition of cellular proliferation” value ([1]; average of 11 lung cancer cell lines) was 25.33%, the “growth-inhibitory activity compared with etoposide” value ([1]; lung cancer cell lines) was “comparable to that of etoposide at concentrations >10 μM” and the “% proliferation” value [2] was 91.82%. For the same substance, the “% proliferation” value [3] was 66.89%.
